Columns and labels:
Format in all cases: physicochemical
[1] = Volatility of amines in 30% by weight aqueous solutions (condensate analysis); conditions: 30 wt.-% amine + 70 wt.-% H2O, 200 mL, 50° C., 30 L (STP)/h N2, 8 h; average of three experiments
Description: The volatility of several amines in 30% by weight aqueous solutions was examined.
The glass cylinder was regulated to 50° C., and 200 mL of the absorbent were introduced in each case. Over an experimental duration of 8 h, 30 L (STP)/h of N2 were passed through the absorbent at ambient pressure.
The experiments were repeated three times.

[2] = Phase separation: critical solution temperature in miscibility unit; conditions: 36 wt.-% aqueous solution; measurable up to 140° C.
Description: To determine the critical solution temperature, a miscibility unit was used. This unit allows the measurement of the temperature at which phase separation occurs (“critical solution temperature”).
The miscibility unit comprised a sight glass vessel equipped with a pressure gauge and a thermocouple. A heater was used to supply heat to the vessel. Measurements were possible up to a temperature of 140° C. The possible phase separation could be visually observed via the sight glass. In the following table, the measured critical solution temperatures are shown for different aqueous amine mixtures.

[3] = pKA determination by titration with aqueous hydrochloric acid; conditions: aqueous amine solution; 20° C.; 0.005 mol/L amine in water titrated with 0.1 mol/L HCl
Description: The pKa values of MDEA and TBAPD were determined by means of titration. An aqueous solution with an amine concentration of 0.005 mol/L of amine was used and titrated with aqueous hydrochloric acid (0.1 mol/L) at 20° C.

Compound | Amine in condensate [1] [wt.-%] | Condensate [1] [mL] | Water in condensate [1] [wt.-%] | Critical Solution Temperature [2] | pKa [3]
tert-butylaminoethoxyethylmorpholine [TBAEEM] | 0.2 | 30.5 | 99.6 | 131° ° C. | 
COCCOCCOCCNC(C)(C)C [M3ETB, (2-(2-(2-tert-butylaminoethoxy)ethoxy)ethyl) methyl ether] | 0.7 | 30.1 | 99.2 | 107° ° C. | 
tert-butylaminoethylmorpholine [TBAEM] | 1.6 | 34.8 | 98.0 |  | 
CC(C)(C)NCCN1CCCC1=O [TBAEPY, 1-[2-(tert-butylamino)ethyl]pyrrolidin-2-one] | 0.2 | 28.8 | 99.5 | —** (no phase separation observed at up to 140° C.) | 9.6
CC(C)(C)NCCOCCO [TBAEE, 2-(2-tert-butylaminoethoxy)ethanol] | 0.7 | 30.0 | 99.3 |  | 
